Test results from patent US8946413B2 (Pfizer Inc., priority 2008, dated 2015).
Like-named read-outs stand apart in the source and are kept apart here.

How the values were obtained:
[1] = system: streptozotocin (STZ)-induced diabetic rat model; assay: Diabetic nephropathy rat model (STZ-induced), 24-hour urinary albumin excretion; format: in vivo; conditions: STZ diabetic male Wistar rats
Description: A rat model of diabetic nephropathy was used to determine the renal protective effect of pharmacological inhibition of CCR2. The streptozotocin (STZ)-induced diabetic rat model has been extensively used for studying the progression of diabetic renal disease. STZ injection causes immediate destruction of pancreatic β-cells, consequently hyperglycemia and progression of nephropathy similar to that seen in human diabetes mellitus. Diabetes was induced in male Wistar rats by single administration of STZ (45 mp/kg, iv). Three days after the induction of diabetes, fasting blood glucose levels were assessed. Animals with fasting blood glucose levels higher than 200 mg/dL were included in the study. All the treatments were then initiated. 1,5-anhydro-2,3-dideoxy-3-{[(1R,3S)-3-isopropyl-3-({(1S,4S)-5-[6-(trifluoromethyl)pyrimidin-4-yl]-2,5-diazabicyclo[2.2.1]hept-2-yl}carbonyl)cyclopentyl]amino}-4-O-methyl-D-erythro-pentitol was administered at doses of 0.03, 0.3, 1, and 10 mg/kg (mpk) (in the chow) for 11 weeks. 24-hour urine collections were obtained at 1, 4, 8, and 11 weeks after the treatment for assessing 24-hour urinary albumin excretion (UAE).

CCR2 = target: T1, CCR2 (Homo sapiens, UniProt P41597); assay: hCCR2 (125-I hMCP-1) small molecule binding assay on human PBMCs; conditions: for IC50: 125I-MCP-1, human PBMCs
T1 construct: (leukophoresis pack); host or cells: human peripheral blood mononuclear cells (PBMCs) from a normal human leukophoresis pack
T1 sequence (P41597 whole entry): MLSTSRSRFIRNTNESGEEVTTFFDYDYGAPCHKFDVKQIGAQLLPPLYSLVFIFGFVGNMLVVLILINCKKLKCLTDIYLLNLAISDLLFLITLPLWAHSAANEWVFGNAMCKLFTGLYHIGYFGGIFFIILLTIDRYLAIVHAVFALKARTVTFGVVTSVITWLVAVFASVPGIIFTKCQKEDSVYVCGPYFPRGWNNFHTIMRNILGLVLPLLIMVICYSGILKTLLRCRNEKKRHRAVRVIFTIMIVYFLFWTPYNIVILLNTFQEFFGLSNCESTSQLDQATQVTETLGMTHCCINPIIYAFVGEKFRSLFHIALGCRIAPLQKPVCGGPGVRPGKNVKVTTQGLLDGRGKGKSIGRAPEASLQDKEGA
Procedure, shortened: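 Ficoll-isolated human PBMCs pre-incubated 30 min or 1 h with compound at 0.333 μM final (0.67% DMSO), then incubated 30 min at room temperature with 150 pM 125I-hMCP-1 in RPMI/0.1% BSA/20 mM HEPES. Filter-bound radioactivity counted by gamma counter. 100% inhibition defined with 1 μM hMCP-1; IC50 plates run n=2.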

[2] = 30 min preincubation, read-out: IC50 (nM) 30 min preinc

## CO[C@@H]1COCC[C@@H]1N[C@@H]1CC[C@@](C(=O)N2C[C@@H]3C[C@H]2CN3c2cc(C(F)(F)F)ncn2)(C(C)C)C1 [Example 13, 1,5-anhydro-2,3-dideoxy-3-{[(1R,3S)-3-isopropyl-3-({(1S,4S)-5-[6-(trifluoromethyl)pyrimidin-4-yl]-2,5-diazabicyclo[2.2.1]hept-2-yl}carbonyl)cyclopentyl]amino}-4-O-methyl-D-erythro-pentitol]
[1]; 0.03 mpk in the chow, week 11
  24-hour urinary albumin excretion (UAE): 2.17±1.31 mg/24 h
[1]; 0.3 mpk in the chow, week 8
  24-hour urinary albumin excretion (UAE): 1.73±0.69 mg/24 h
[1]; 0.3 mpk in the chow, week 11
  24-hour urinary albumin excretion (UAE): 1.96±0.85 mg/24 h
[1]; 1 mpk in the chow, week 8
  24-hour urinary albumin excretion (UAE): 1.09±0.20 mg/24 h
[1]; 1 mpk in the chow, week 11
  24-hour urinary albumin excretion (UAE): 1.66±0.65 mg/24 h
[1]; 10 mpk in the chow, week 8
  24-hour urinary albumin excretion (UAE): 0.71±0.22 mg/24 h
[1]; 10 mpk in the chow, week 11
  24-hour urinary albumin excretion (UAE): 1.02±0.32 mg/24 h
CCR2; [2]
  IC50: 25.4 nM
CCR2; 1 hr preincubation, read-out: IC50 (nM) 1 hr preinc
  IC50: 3.68 nM

## CO[C@@H]1COCC[C@@H]1N[C@@H]1CC[C@H](C(=O)N2C[C@@H]3C[C@H]2CN3c2cc(C(F)(F)F)ccn2)C1 [Example 65, ((1S,3R)-3-((3S,4S)-3-methoxy-tetrahydro-2H-pyran-4-ylamino)cyclopentyl)((1S,4S)-5-(4-(trifluoromethyl)pyridin-2-yl)-2,5-diaza-bicyclo[2.2.1]heptan-2-yl)methanone]
CCR2; 300 nM, 1 hr preincubation, human PBMCs, read-out: % @300 nM (printed in column IC50 1 hr preinc)
  inhibition at 0.3 µM: 1.5%

## CO[C@@H]1COCC[C@@H]1N[C@@H]1CC[C@@](C(=O)N2C[C@@H]3C[C@H]2CN3c2cc(F)cc(C(F)(F)F)c2)(C2CCOC2)C1 (stereo partly shown) [Example 66]
CCR2; [2]
  IC50: 1.7 nM

## CO[C@@H]1COCC[C@@H]1N[C@@H]1CC[C@@](C(=O)N2C[C@@H]3[C@H](F)[C@H]2CN3c2cc(C(F)(F)F)ccn2)(C(C)C)C1 [Example 67, ((1R,4R,7S)-7-(fluoro)-5-(4-(trifluoromethyl)pyridin-2-yl)-2,5-diaza-bicyclo[2.2.1]heptan-2-yl)((1S,3R)-1-isopropyl-3-((3S,4S)-3-methoxy-tetrahydro-2H-pyran-4-ylamino)cyclopentyl)methanone]
CCR2; [2]
  IC50: 3.4 nM

## CO[C@@H]1COCC[C@@H]1N[C@@H]1CC[C@@](C(=O)N2C[C@@H]3[C@H](O)[C@H]2CN3c2cc(C(F)(F)F)ccn2)(C(C)C)C1 [Example 68, ((1R,4R,7S)-7-hydroxy-5-(4-(trifluoromethyl)pyridin-2-yl)-2,5-diaza-bicyclo[2.2.1]heptan-2-yl)((1S,3R)-1-isopropyl-3-((3S,4S)-3-methoxy-tetrahydro-2H-pyran-4-ylamino)cyclopentyl)methanone]
CCR2; [2]
  IC50: 5.4 nM

## CO[C@@H]1COCC[C@@H]1N[C@@H]1CC[C@@](C(=O)N2C[C@@H]3C(F)[C@H]2CN3c2cc(C(F)(F)F)ccn2)(C(C)C)C1 (stereo partly drawn) [Example 69, ((1R,4R)-7-fluoro-5-(4-(trifluoromethyl)pyridin-2-yl)-2,5-diaza-bicyclo[2.2.1]heptan-2-yl)((1S,3R)-1-isopropyl-3-((3S,4S)-3-methoxy-tetrahydro-2H-pyran-4-ylamino)cyclopentyl)methanone]
CCR2; [2]
  IC50: 4.3 nM

## CO[C@@H]1COCC[C@@H]1N[C@@H]1CC[C@@](C(=O)N2C[C@@H]3C(O)[C@H]2CN3C(=O)OC(C)(C)C)(C(C)C)C1 (stereo partly drawn) [Example 70, (1R,4R,7S)-tert-butyl 7-hydroxy-5-((1S)-1-isopropyl-3-(3-methoxy-tetrahydro-2H-pryan-4-ylamino)cyclopentanecarbonyl)-2,5-diaza-bicyclo[2.2.1]heptane-2-carboxylate]
CCR2; [2]
  IC50: 8.7 nM

## CO[C@@H]1COCC[C@@H]1N[C@@H]1CC[C@@](C(=O)N2C[C@@H]3C(F)[C@H]2CN3C(=O)OC(C)(C)C)(C(C)C)C1 (stereo partly drawn) [Example 71, tert-butyl 7-fluoro-5-((1S,3R)-1-isopropyl-3-((3S,4S)-3-methoxy-tetrahydro-2H-pyran-4-ylamino)cyclopentanecarbonyl)-2,5-diaza-bicyclo[2.2.1]heptane-2-carboxylate]
CCR2; [2]
  IC50: 3.7 nM
